Data as given in PubChem BioAssay (NCI).
Several values for one entry are separate records, joined by “and”; a condition that tells them apart may be missing. Identical values can stand only once.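 The compound was tested at five concentrations on cells cultured in 96-well plates, with a 48-hour exposure period. GI50 is the concentration that inhibits growth by half. At the TGI there is no net growth.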

How the values were obtained:
Test in all cases: growth of human tumour cells (NCI), 48 h
A498 renal = system: A498 renal
A549 NSCLC = system: A549 NSCLC
BT-549 breast = system: BT-549 breast
CAKI-1 renal = system: CAKI-1 renal
CCRF-CEM leukemia = system: CCRF-CEM leukemia
DU-145 prostate = system: DU-145 prostate
NCI-H460 lung = system: NCI-H460 lung
OVCAR-4 ovarian = system: OVCAR-4 ovarian
SF-268 CNS = system: SF-268 CNS
UO-31 renal = system: UO-31 renal

COC(=O)C(C)NP(=O)(OCc1cccc(Cn2cnc3c(N)ncnc32)c1)Oc1ccccc1 (centres undefined)
GI50 (A498 renal): > 100 µM
TGI (A498 renal): > 100 µM
GI50 (A549 NSCLC): > 100 µM
TGI (A549 NSCLC): > 100 µM
GI50 (BT-549 breast): > 100 µM
TGI (BT-549 breast): > 100 µM
GI50 (CAKI-1 renal): > 100 µM
TGI (CAKI-1 renal): > 100 µM
GI50 (CCRF-CEM leukemia): 50.5 µM
TGI (CCRF-CEM leukemia): > 100 µM
GI50 (DU-145 prostate): > 100 µM
TGI (DU-145 prostate): > 100 µM
GI50 (NCI-H460 lung): > 100 µM
TGI (NCI-H460 lung): > 100 µM
GI50 (OVCAR-4 ovarian): > 100 µM
TGI (OVCAR-4 ovarian): > 100 µM
GI50 (SF-268 CNS): 58.4 µM
TGI (SF-268 CNS): > 100 µM
GI50 (UO-31 renal): > 100 µM
TGI (UO-31 renal): > 100 µM

C/C=C(/CCC1NCCc2c1[nH]c1ccccc21)[Si](C)(C)C (centres undefined)
TGI (A498 renal): 72 µM and 23.5 µM
TGI (A549 NSCLC): > 100 µM and 29.7 µM
TGI (CAKI-1 renal): > 100 µM and 18.3 µM
TGI (CCRF-CEM leukemia): > 100 µM and 11.5 µM
TGI (OVCAR-4 ovarian): > 100 µM and 11.9 µM
TGI (SF-268 CNS): > 100 µM and 29 µM
TGI (UO-31 renal): > 100 µM and 17.3 µM

O=c1c(-c2ccccc2)c(SCCCN2CCCCC2)n(-c2ccccc2)c(=S)n1-c1ccccc1
TGI (A498 renal): 29 µM
TGI (BT-549 breast): 35.5 µM
TGI (CAKI-1 renal): 38.7 µM
TGI (CCRF-CEM leukemia): 50.9 µM
TGI (DU-145 prostate): 34.1 µM
TGI (NCI-H460 lung): 31.5 µM
TGI (OVCAR-4 ovarian): 58 µM

O=c1[nH]c2ccccc2c2oc3ccccc3c12
TGI (A498 renal): > 100 µM
TGI (A549 NSCLC): > 100 µM
TGI (BT-549 breast): > 100 µM
TGI (CAKI-1 renal): > 100 µM
TGI (CCRF-CEM leukemia): > 100 µM
TGI (DU-145 prostate): > 100 µM
TGI (NCI-H460 lung): > 100 µM
TGI (OVCAR-4 ovarian): > 100 µM
TGI (SF-268 CNS): > 100 µM
TGI (UO-31 renal): > 100 µM

COC(=O)C1=C(O)C(C(=O)OC)[C@@]2(O)[C@@H](C(=O)OC)[C@H](C)C[C@@H]1[C@@H]2C(=O)OC (some centres undefined)
TGI (A498 renal): 44.3 µM
TGI (BT-549 breast): > 100 µM
TGI (CCRF-CEM leukemia): > 100 µM
TGI (DU-145 prostate): 50.5 µM
TGI (NCI-H460 lung): 44.3 µM
TGI (UO-31 renal): 67.6 µM

NCCCCNOCCCN
TGI (A549 NSCLC): > 100 µM
TGI (BT-549 breast): > 100 µM
TGI (CAKI-1 renal): > 100 µM
TGI (CCRF-CEM leukemia): > 100 µM
TGI (DU-145 prostate): > 100 µM
TGI (NCI-H460 lung): > 100 µM
TGI (OVCAR-4 ovarian): > 100 µM
TGI (SF-268 CNS): > 100 µM
TGI (UO-31 renal): > 100 µM

CC(C)(CCCCC(C)(C)NC1=NCCO1)NC1=NCCO1
TGI (A498 renal): > 10 µM
TGI (A549 NSCLC): > 10 µM
TGI (CAKI-1 renal): > 10 µM
TGI (CCRF-CEM leukemia): > 10 µM
TGI (DU-145 prostate): > 10 µM
TGI (NCI-H460 lung): > 10 µM
TGI (OVCAR-4 ovarian): > 10 µM
TGI (SF-268 CNS): > 10 µM
TGI (UO-31 renal): > 10 µM

CC(C)(C)OC(=O)CC(NC(=O)OCc1ccccc1)NC(=O)OC(C)(C)C (centres undefined)
GI50 (A498 renal): 76.4 µg/mL
GI50 (A549 NSCLC): 35.2 µg/mL
GI50 (BT-549 breast): 14.2 µg/mL
GI50 (CCRF-CEM leukemia): 35.4 µg/mL
GI50 (DU-145 prostate): 72.3 µg/mL
GI50 (NCI-H460 lung): 39.8 µg/mL
GI50 (OVCAR-4 ovarian): 78.9 µg/mL
GI50 (SF-268 CNS): 87.1 µg/mL
GI50 (UO-31 renal): 27 µg/mL

C=CCN1C(=O)NC(=O)/C(=C/c2c3ccccc3cc3ccccc23)C1=O
TGI (A549 NSCLC): 58.2 µM
TGI (CAKI-1 renal): 40.3 µM
TGI (CCRF-CEM leukemia): > 100 µM
TGI (NCI-H460 lung): 37 µM
TGI (OVCAR-4 ovarian): 47.5 µM
TGI (SF-268 CNS): 60.8 µM
TGI (UO-31 renal): 37 µM
